Test results as given in US6372727B1, “Metalloporphyrin treatment of neurologic disease” (UAB Research Foundation, priority 1999, dated 2002).
“And” between values parts separate entries of the source, which are not always exact repeats. Identical values can stand only once.

Tests used:
[1] = MP-catalyzed peroxynitrite decomposition monitored at 302 nm; type: biochemical; conditions: 100 μM peroxynitrite
Procedure: Peroxynitrite (100 μM) was added to rapidly stirred cuvettes at 37° C. containing the indicated concentrations of MPs in 0.1 M potassium phosphate, pH 7.4. Ascorbate was added to 150 μM where indicated. Peroxynitrite decomposition was monitored at 302 nm using a Hewlett-Packard diode-array spectrophotometer. Apparent rates (kapparents^−1, average of n=3) were plotted versus MP concentration to determine rate constants in M^−1s^−1.
Reactions contained the indicated concentration of FeTCPPin 1.4 ml of 0.1 M potassium phosphate, pH 7.4 in the absence or presence to 150 μM ascorbic acid. Peroxynitrite (100 μM) was added to rapidly stirred cuvettes at 37° C. and the decay of peroxynitrite was monitored continuously at 302 nm. Decay data were fitted to the equation describing first order decay to obtain apparent decay rates (kapparent sec^−1). Apparent decay rates as a function of FeTCPP were fitted by linear regression and the rate constant was obtained slope of the line.
Peroxynitrite (100 μM) decomposition was determined at 302 nm using a Hewlett-Packard diode-array spectrophotometer fitted with a temperature-controlled cuvette chamber and a water-driven cuvette stirrer. Bolus additions of peroxynitrite were made to vigorously stirred cuvettes containing varying concentrations of MPs (see Table III) while data were collected at a rate of ten points/sec. […] Each reaction was repeated three times and only the first additions of peroxynitrite were averaged. Data were exported for fitting and plotting. Apparent rates of peroxynitrite decomposition were plotted as a function of metalloporphyrin concentration (as shown in FIG. 5) to determine concentration-independent rate constants at 37° C.
Rates of peroxynitrite (100 μM) decomposition were determined at different MP concentrations. Ascorbate was added to 150 μM where indicated. […] Apparent rate constants were plotted versus MP concentration (as in FIG. 5A,B) to determine true rate constants in M^−1s^−1±standard error.

[2] = Peroxynitrite-mediated nitration of GYA peptide; type: biochemical; conditions: percent of added peroxynitrite
[3] = Ascorbate oxidation by MPs monitored at 266 nm; type: biochemical; conditions: MP 10 μM, 50 μM ascorbate, 0.1 M potassium phosphate pH 7.4, ± standard error, n=3
Procedure: In order to test the hypothesis that Mn(II)- or Fe(II)-porphyrins would be capable of carrying out two-electron reductions of peroxynitrite and thereby decreasing rather than increasing its reactivity, attempts were made to pre-reduce these transition metal-containing MPs prior to addition of peroxynitrite.
Table V. Ascorbate oxidation by MPs. MPs (10 μM) were added to stirred cuvettes containing 0.1 M potassium phosphate, pH 7.4 and 50 μM ascorbate. Ascorbate oxidation was monitored at 266 nm (ηm=17,700 M^−1cm^−1). Oxidation rates (±standard errors) were determined by fitting the initial linear portion of each curve and averaging the rates (n=3).

[4] = 100 μM DCDHF, pH 7.4, 37° C.
Procedure: A 14.5 mM stock solution of 2,7-dichlorodihydrofluorescein was prepared as described (24). Reaction solutions were prepared in rapidly stirred glass cuvettes and contained 100 μM of DCDHF and 2 μM of the indicated MP in 1.4 ml of 0.1 M potassium phosphate, pH 7.4 at 37° C. Peroxynitrite was added sequentially to rapidly stirred cuvettes; three seperate additions of 2 μM peroxynitrite were made followed by three seperate additions of 4 μM each (see Inset). DCDHF oxidation to dichlorofluorescein (DCF) was monitored at 500 nm (59,500 M^−1cm^−1) (24). Oxidative efficiency was defined as the moles of DCF formed per mole of peroxynitrite added and was determined for each peroxynitrite addition. The values shown represent the average of all six additions.
Dichlorodihydrofluorescein (DCDHF) undergoes a two-electron oxidation to yield the highly absorbing (and fluorescent) product dichlorofluorescein (DCF). DCDHF has been shown previously to be oxidized at an efficiency as high as 38% of added peroxynitrite (24) and was used here as an indicator to detect any changes in the total oxidative yield of peroxynitrite caused by metalloporphyrins.

SMILES	Rate Constants for MP-Catalyzed Decomposition of Peroxynitrite (pH 7.4, 37° C.) ([1]; absence of added reductants)	average efficiency of nitration catalysis [2]	Rate of Ascorbate Oxidation [3]	Rate Constants for MP-Catalyzed Decomposition of Peroxynitrite (pH 7.4, 37° C.) ([1]; plus ascorbate 150 μM)	increase of total oxidant yield from peroxynitrite [4]	oxidant yield, of added peroxynitrite [4]
O=C(O)c1ccc(-c2c3nc(c(-c4ccc(C(=O)O)cc4)c4ccc([n-]4)c(-c4ccc(C(=O)O)cc4)c4nc(c(-c5ccc(C(=O)O)cc5)c5ccc2[n-]5)C=C4)C=C3)cc1.[Fe+2] [FeTCPP, Iron (III) meso 5,10,15,20-tetrakis-(4-carboxy-phenyl) porphyrin]	1.6×10^6 M^−1s^−1 and 2.9 × 10^6 M^−1s^−1 ± 0.4 M^−1s^−1	22.7%	5.8 µM/min	–	–	–
C[n+]1ccc(-c2c3nc(c(-c4cc[n+](C)cc4)c4ccc([n-]4)c(-c4cc[n+](C)cc4)c4nc(c(-c5cc[n+](C)cc5)c5ccc2[n-]5)C=C4)C=C3)cc1.[Cl-].[Cl-].[Cl-].[Cl-].[Cl-].[Mn+3] [MnTMPyP, Manganese (III) meso-tetra-(N-methyl-4-pyridyl)-porphine chloride]	–	–	6.77 ± 0.33 µM/min	1.8 × 10^6 ± 0.3 M^−1s^−1	2.2 fold	83%
